Paper PMC3795266, “Nitrogen Oxyanion-dependent Dissociation of a Two-component Complex That Regulates Bacterial Nitrate Assimilation” (The Journal of Biological Chemistry, 2013)

What was measured:
NasS-NasT = target: T1, NasS-NasT (Paracoccus denitrificans, UniProt A1BAH4); assay: intrinsic tryptophan fluorescence quench (ex […] nm, em […] nm); format: binding; conditions: read-out: KD^app
T1 construct: gene Pden_4454; co-expressed from pET-24a/nasTS in E. coli BL21(DE3); N-terminal His6-tag on NasT (tag kept), NasS untagged; NasS ~42 kDa, NasT ~22 kDa; heterotetramer ~132 kDa (two NasS, two NasT); with Response regulator NasT, ANTAR domain-containing positive regulator
T1 sequence (A1BAH4 1-390): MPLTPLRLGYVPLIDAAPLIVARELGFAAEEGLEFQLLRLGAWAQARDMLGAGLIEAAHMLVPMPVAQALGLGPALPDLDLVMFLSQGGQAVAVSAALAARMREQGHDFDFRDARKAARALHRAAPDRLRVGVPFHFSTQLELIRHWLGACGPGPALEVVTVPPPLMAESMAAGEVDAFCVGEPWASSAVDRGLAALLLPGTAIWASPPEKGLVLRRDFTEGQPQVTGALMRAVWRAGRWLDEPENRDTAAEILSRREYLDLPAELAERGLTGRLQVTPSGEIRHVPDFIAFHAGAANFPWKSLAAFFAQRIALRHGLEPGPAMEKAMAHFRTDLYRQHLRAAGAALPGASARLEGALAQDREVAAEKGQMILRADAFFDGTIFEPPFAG
T1 sequence (A1BAH5 1-196 partner): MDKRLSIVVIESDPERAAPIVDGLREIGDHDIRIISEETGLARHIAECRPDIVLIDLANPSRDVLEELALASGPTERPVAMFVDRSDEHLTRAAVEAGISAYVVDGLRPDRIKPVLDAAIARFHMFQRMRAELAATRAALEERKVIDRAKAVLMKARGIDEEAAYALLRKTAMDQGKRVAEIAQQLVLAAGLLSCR

[1] = target: NasT (His-tagged recombinant P. denitrificans NasT) (Paracoccus denitrificans PD1222); assay: AUC; sedimentation equilibrium of the purified complex, no NO3-; 50 mM NaHEPES, 100 mM NaCl, pH 7.5; 7.5, 12 and 16 krpm; 10 uM protein; ideal one-component fit
[2] = target: NasT (His-tagged recombinant P. denitrificans NasT) (Paracoccus denitrificans PD1222); assay: SEC; analytical Superdex 200 HR 10/30, equilibration buffer supplemented with 1 mM NO3-; fractions analysed by SDS-PAGE

Row | Compound | Kd (NasS-NasT) | further results
1 | O=NO [NO2^−] | 94 ± 12 µM | 
2 | O=[N+]([O-])O [NO3^−] | 15 ± 2 µM | 
3 | NasS (recombinant P. denitrificans NasS) (natural protein) |  | stoichiometry N (NasS per NasT (2:2)) [1]: 1
4 | NasT (His-tagged recombinant P. denitrificans NasT) (natural protein) |  | stoichiometry N [2]: 6 monomers
